As usually defined, the IC50 is the midpoint of a concentration-inhibition curve.

The subject of series [1] is MCF7. Briefly: Growth inhibition of human MCF7 cells at 10 uM after 72 hrs by MTT assay. The series is classed as functional. Conditions: MCF7, 72 h, read-out: GI. (Tetrazolium dyes change colour on reduction, which living cells bring about.)
For a further series, the system named is SW480. Briefly: Growth inhibition of human SW480 cells at 10 uM after 72 hrs by MTT assay. The format is functional. The following applies: SW480, 72 h, read-out: GI.
Series [2] has as its target Vascular endothelial growth factor receptor 2 (Homo sapiens, UniProt P35968). Briefly: Inhibition of human recombinant VEGFR2 incubated for 1 hr using [gamma-32P]ATP by top count assay.
Series [3] relates to A-375. Briefly: Cytotoxicity against human A375 cells assessed as reduction in cell viability after 72 hrs by MTT assay. Conditions: A-375, 72 h. The format is functional, cell-based.
Series [4] has as its system HepG2. Briefly: Growth inhibition of human HepG2 cells at 10 uM after 72 hrs by MTT assay. The format is functional. Conditions: HepG2, 72 h, read-out: GI.
Series [5] concerns Mus musculus. Briefly: Toxicity in human A375 cells xenografted nude Ncr mouse assessed as body weight changes at 50 mg/kg, ig dosed once daily for 23 days. The format is organism-based, A-375. Also noted: dose 50 mg/kg, route intragastric. The following applies: in vivo, po, 552 h. On the technique in general: In xenograft studies the graft and the host belong to different species.

Series [6] has as its system HepG2. Briefly: Cytotoxicity against human HepG2 cells assessed as reduction in cell viability after 72 hrs by MTT assay. The format is functional, cell-based. Conditions: HepG2, 72 h.
Series [7] has as its system A-375. Briefly: Growth inhibition of human A375 cells at 10 uM after 72 hrs by MTT assay. The format is functional. Conditions: A-375, 72 h, read-out: GI.
Another series concerns NCI-H522. Briefly: Growth inhibition of human NCI-H522 cells at 10 uM after 72 hrs by MTT assay. The series is classed as functional. The following applies: NCI-H522, 72 h, read-out: GI.
For series [8], the target named is Serine/threonine-protein kinase B-raf (Homo sapiens, UniProt P15056). Briefly: Inhibition of BRAF (unknown origin) incubated for 15 mins by fluorescence based assay.
Sequence of Serine/threonine-protein kinase B-raf (P15056 whole entry): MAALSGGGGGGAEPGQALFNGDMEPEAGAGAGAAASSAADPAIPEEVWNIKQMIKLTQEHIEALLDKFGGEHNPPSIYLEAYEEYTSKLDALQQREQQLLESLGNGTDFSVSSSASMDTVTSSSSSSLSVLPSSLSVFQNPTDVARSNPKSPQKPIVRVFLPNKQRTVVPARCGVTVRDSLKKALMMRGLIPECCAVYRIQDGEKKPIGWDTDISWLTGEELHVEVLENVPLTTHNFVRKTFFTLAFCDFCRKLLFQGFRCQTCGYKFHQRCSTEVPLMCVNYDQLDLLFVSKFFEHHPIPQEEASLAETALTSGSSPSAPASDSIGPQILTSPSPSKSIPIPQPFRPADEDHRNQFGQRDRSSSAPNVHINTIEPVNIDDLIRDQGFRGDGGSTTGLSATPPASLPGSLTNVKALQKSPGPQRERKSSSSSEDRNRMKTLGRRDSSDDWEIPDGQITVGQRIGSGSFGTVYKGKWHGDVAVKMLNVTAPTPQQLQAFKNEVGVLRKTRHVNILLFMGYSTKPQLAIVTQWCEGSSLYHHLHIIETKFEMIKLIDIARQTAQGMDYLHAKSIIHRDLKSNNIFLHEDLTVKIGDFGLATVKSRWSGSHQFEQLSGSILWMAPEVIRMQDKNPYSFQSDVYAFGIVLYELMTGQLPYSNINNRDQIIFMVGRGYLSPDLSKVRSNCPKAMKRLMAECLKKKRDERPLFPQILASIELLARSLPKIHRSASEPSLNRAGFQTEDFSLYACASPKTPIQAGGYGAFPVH
Series [9] relates to MDA-MB-453. Briefly: Growth inhibition of human MDA-MB-453 cells at 10 uM after 72 hrs by MTT assay. The series is classed as functional. Conditions: MDA-MB-453, 72 h, read-out: GI.
Series [10] has as its system MDA-MB-453. Briefly: Cytotoxicity against human MDA-MB-453 cells assessed as reduction in cell viability after 72 hrs by MTT assay. The series is classed as functional, cell-based. Conditions: MDA-MB-453, 72 h.
Series [11] deals with A-375. Briefly: Antitumor activity against human A375 cells xenografted in nude Ncr mouse assessed as reduction in tumor growth at 50 mg/kg, ig dosed once daily for 23 days. The format is functional. Conditions: A-375, po, 552 h, route intragastric, read-out: TGI.
The test system of series [12] is Mus musculus. Briefly: Toxicity in human A375 cells xenografted nude Ncr mouse assessed as induction of adverse events at 50 mg/kg, ig dosed once daily for 23 days. The format is organism-based, A-375. Set-up: dose 50 mg/kg, route intragastric. Conditions: in vivo, po, 552 h.
Series [13] deals with MCF7. Briefly: Cytotoxicity against human MCF7 cells assessed as reduction in cell viability after 72 hrs by MTT assay. The series is classed as functional, cell-based. Conditions: MCF7, 72 h.

Sequence of Vascular endothelial growth factor receptor 2 (P35968 whole entry): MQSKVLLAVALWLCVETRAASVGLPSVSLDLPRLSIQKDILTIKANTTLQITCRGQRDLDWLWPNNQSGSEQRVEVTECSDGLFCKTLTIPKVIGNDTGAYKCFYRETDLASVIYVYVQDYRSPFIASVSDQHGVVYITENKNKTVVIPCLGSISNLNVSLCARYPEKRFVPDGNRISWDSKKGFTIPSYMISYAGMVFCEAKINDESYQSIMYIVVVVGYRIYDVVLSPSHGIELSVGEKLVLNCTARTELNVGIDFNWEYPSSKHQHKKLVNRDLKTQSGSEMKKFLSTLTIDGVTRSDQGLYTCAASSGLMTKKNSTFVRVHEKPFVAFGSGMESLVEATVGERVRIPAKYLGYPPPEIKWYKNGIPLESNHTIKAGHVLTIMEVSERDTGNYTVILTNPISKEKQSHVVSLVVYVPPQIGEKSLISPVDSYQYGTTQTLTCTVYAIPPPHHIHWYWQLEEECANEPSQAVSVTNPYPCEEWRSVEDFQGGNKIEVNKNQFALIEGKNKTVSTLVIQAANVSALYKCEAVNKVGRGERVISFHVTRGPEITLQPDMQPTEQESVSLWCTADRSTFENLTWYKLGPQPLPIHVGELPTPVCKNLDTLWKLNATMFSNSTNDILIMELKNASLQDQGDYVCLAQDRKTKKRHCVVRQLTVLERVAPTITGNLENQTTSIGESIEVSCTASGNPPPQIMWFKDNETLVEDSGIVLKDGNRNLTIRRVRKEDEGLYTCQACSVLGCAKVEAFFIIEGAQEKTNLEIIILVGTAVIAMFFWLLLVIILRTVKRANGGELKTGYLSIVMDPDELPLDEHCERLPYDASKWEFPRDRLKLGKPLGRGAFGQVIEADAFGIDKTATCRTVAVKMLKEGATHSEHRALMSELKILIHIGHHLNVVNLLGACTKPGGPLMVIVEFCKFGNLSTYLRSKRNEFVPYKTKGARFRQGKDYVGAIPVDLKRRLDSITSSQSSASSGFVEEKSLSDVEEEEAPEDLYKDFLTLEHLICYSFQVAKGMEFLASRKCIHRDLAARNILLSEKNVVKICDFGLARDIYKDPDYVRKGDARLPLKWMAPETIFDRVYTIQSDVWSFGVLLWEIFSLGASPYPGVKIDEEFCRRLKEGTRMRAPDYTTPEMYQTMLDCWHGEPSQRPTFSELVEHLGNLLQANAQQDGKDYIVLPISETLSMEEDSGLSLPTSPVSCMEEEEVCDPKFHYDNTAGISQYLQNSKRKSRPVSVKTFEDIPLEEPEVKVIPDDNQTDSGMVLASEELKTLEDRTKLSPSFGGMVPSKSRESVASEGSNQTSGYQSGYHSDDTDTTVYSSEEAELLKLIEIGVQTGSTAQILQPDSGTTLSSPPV

With `O=C(Nc1ccc(Cl)c(C(F)(F)F)c1)c1ccc(Cl)c(C(=O)Nc2ccc(-c3ncc[nH]3)nc2)c1`, the inhibition of growth at 10 µM was 31.3% with MCF7 [1]; 33.4% with SW480; 63.4% in the series with HepG2 [4]; 64.4% in the series with A-375 [7]; 0.2% in the series on NCI-H522; 52.9% in the series with MDA-MB-453 [9]. Moreover, the IC50 in series [2] came to 23.4 µM; with A-375 [3], 2.93 µM; in the series with HepG2 [6], 3.21 µM; in series [8] it was 0.531 µM; in the series on MDA-MB-453 [10], 7.96 µM. Moreover, the Activity entry with Mus musculus [5] and in the series on Mus musculus [12] was “Non-toxic” throughout. In addition, the inhibition in vivo at 50 mg/kg in the series on A-375 [11] turned out to be 42.5%.

Turning to `O=C(Nc1ccc(Cl)c(C(=O)Nc2ccc(-c3ncc[nH]3)nc2)c1)c1ccc(Cl)c(C(F)(F)F)c1`, the IC50 in the series on MCF7 [13] was determined as 15.3 µM; in series [2], 18.6 µM; in the series with A-375 [3], 4.26 µM; with HepG2 [6] it was 13.8 µM; in series [8], 0.65 µM; with MDA-MB-453 [10], 8.35 µM. The inhibition of growth at 10 µM in the series with MCF7 [1] is 41.5%; in the series with SW480, 38.8%; with HepG2 [4], 54.2%; with A-375 [7], 62.6%; in the series on NCI-H522, -3.2%; in the series on MDA-MB-453 [9] it was 49.3%. The Activity result with Mus musculus [5] and in the series on Mus musculus [12] was “Non-toxic” each time. Besides, the inhibition in vivo at 50 mg/kg with A-375 [11] worked out at 35.7%.

Source of the values: ChEMBL document CHEMBL3392978 (Eur J Med Chem, 2015).
